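Assay format: 96-well plates, 48-hour exposure. TGI: concentration producing complete growth inhibition.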
Key:
Test in all cases: NCI anticancer screen, dose series, 48 h
M14 melanoma = system: M14 melanoma
DMS 273 small cell lung = system: DMS 273 small cell lung
HL-60(TB) leukemia = system: HL-60(TB) leukemia
RPMI-8226 leukemia = system: RPMI-8226 leukemia
SK-MEL-5 melanoma = system: SK-MEL-5 melanoma
NCI-H460 lung = system: NCI-H460 lung
KM12 colon = system: KM12 colon
SF-295 CNS = system: SF-295 CNS
EKVX NSCLC = system: EKVX NSCLC
U251 CNS = system: U251 CNS
OVCAR-3 ovarian = system: OVCAR-3 ovarian
HOP-92 NSCLC = system: HOP-92 NSCLC
NCI-H23 lung = system: NCI-H23 lung
HCT-116 colon = system: HCT-116 colon
CCRF-CEM leukemia = system: CCRF-CEM leukemia
HT29 colon = system: HT29 colon
OVCAR-4 ovarian = system: OVCAR-4 ovarian
A549 NSCLC = system: A549 NSCLC
RXF 393 renal = system: RXF 393 renal
SK-MEL-2 melanoma = system: SK-MEL-2 melanoma
TK-10 renal = system: TK-10 renal
UO-31 renal = system: UO-31 renal
XF 498 CNS = system: XF 498 CNS
NCI-H226 lung = system: NCI-H226 lung
SF-268 CNS = system: SF-268 CNS
UACC-62 melanoma = system: UACC-62 melanoma
MOLT-4 leukemia = system: MOLT-4 leukemia
ACHN renal = system: ACHN renal
SNB-19 CNS = system: SNB-19 CNS
M19-MEL melanoma = system: M19-MEL melanoma
COLO 205 colon = system: COLO 205 colon
SNB-78 CNS = system: SNB-78 CNS
OVCAR-8 ovarian = system: OVCAR-8 ovarian
SK-MEL-28 melanoma = system: SK-MEL-28 melanoma
786-0 renal = system: 786-0 renal
IGROV1 ovarian = system: IGROV1 ovarian
MALME-3M melanoma = system: MALME-3M melanoma
LXFL 529 NSCLC = system: LXFL 529 NSCLC
DLD-1 colon = system: DLD-1 colon
CAKI-1 renal = system: CAKI-1 renal
UACC-257 melanoma = system: UACC-257 melanoma
DMS 114 small cell lung = system: DMS 114 small cell lung
OVCAR-5 ovarian = system: OVCAR-5 ovarian
HOP-62 NSCLC = system: HOP-62 NSCLC
K-562 leukemia = system: K-562 leukemia
SW-620 colon = system: SW-620 colon
SF-539 CNS = system: SF-539 CNS
SK-OV-3 ovarian = system: SK-OV-3 ovarian
A498 renal = system: A498 renal
SNB-75 CNS = system: SNB-75 CNS
NCI-H522 lung = system: NCI-H522 lung
LOX IMVI melanoma = system: LOX IMVI melanoma
HCT-15 colon = system: HCT-15 colon
KM20L2 colon = system: KM20L2 colon
SN12C renal = system: SN12C renal
HOP-18 NSCLC = system: HOP-18 NSCLC
SR leukemia = system: SR leukemia
HCC-2998 colon = system: HCC-2998 colon
MCF7 breast = system: MCF7 breast
HS 578T breast = system: HS 578T breast
T-47D breast = system: T-47D breast
MDA-MB-231 breast = system: MDA-MB-231 breast
NCI/ADR-RES ovarian = system: NCI/ADR-RES ovarian
DU-145 prostate = system: DU-145 prostate
PC-3 prostate = system: PC-3 prostate
MDA-MB-435 = system: MDA-MB-435
BT-549 breast = system: BT-549 breast

`CC1(C)CC(c2c[nH]c3ccccc23)=CC2=Nc3ccccc3C21O` (centres undefined) gave a TGI (M14 melanoma) greater than 100 µM, a TGI (DMS 273 small cell lung) greater than 100 µM and a TGI (HL-60(TB) leukemia) greater than 100 µM. For the same compound, the TGI (RPMI-8226 leukemia) was greater than 100 µM, the TGI (SK-MEL-5 melanoma) was greater than 100 µM and the TGI (NCI-H460 lung) was greater than 100 µM. For the same compound, the TGI (KM12 colon) was greater than 100 µM, the TGI (SF-295 CNS) was greater than 100 µM and the TGI (EKVX NSCLC) was greater than 100 µM. For the same compound, the TGI (U251 CNS) was greater than 100 µM, the TGI (OVCAR-3 ovarian) was greater than 100 µM and the TGI (HOP-92 NSCLC) was 64.3 µM. For the same compound, the TGI (NCI-H23 lung) was greater than 100 µM, the TGI (HCT-116 colon) was greater than 100 µM and the TGI (CCRF-CEM leukemia) was greater than 100 µM. The TGI (HT29 colon) was greater than 100 µM, the TGI (OVCAR-4 ovarian) was greater than 100 µM and the TGI (A549 NSCLC) was greater than 100 µM. The TGI (RXF 393 renal) was greater than 100 µM, the TGI (SK-MEL-2 melanoma) was greater than 100 µM and the TGI (TK-10 renal) was greater than 100 µM. For the same compound, the TGI (UO-31 renal) was greater than 100 µM, the TGI (XF 498 CNS) was greater than 100 µM and the TGI (NCI-H226 lung) was 57.7 µM. The TGI (SF-268 CNS) was greater than 100 µM, the TGI (UACC-62 melanoma) was greater than 100 µM and the TGI (MOLT-4 leukemia) was greater than 100 µM. The TGI (ACHN renal) was greater than 100 µM, the TGI (SNB-19 CNS) was greater than 100 µM and the TGI (M19-MEL melanoma) was greater than 100 µM. It also gave a TGI (COLO 205 colon) greater than 100 µM, a TGI (SNB-78 CNS) greater than 100 µM and a TGI (OVCAR-8 ovarian) greater than 100 µM. For the same compound, the TGI (SK-MEL-28 melanoma) was 77.7 µM, the TGI (786-0 renal) was greater than 100 µM and the TGI (IGROV1 ovarian) was greater than 100 µM. The TGI (MALME-3M melanoma) was greater than 100 µM, the TGI (LXFL 529 NSCLC) was greater than 100 µM and the TGI (DLD-1 colon) was greater than 100 µM. The TGI (CAKI-1 renal) was greater than 100 µM, the TGI (UACC-257 melanoma) was greater than 100 µM and the TGI (DMS 114 small cell lung) was greater than 100 µM. It also gave a TGI (OVCAR-5 ovarian) greater than 100 µM, a TGI (HOP-62 NSCLC) greater than 100 µM and a TGI (K-562 leukemia) greater than 100 µM. It also gave a TGI (SW-620 colon) greater than 100 µM, a TGI (SF-539 CNS) greater than 100 µM and a TGI (SK-OV-3 ovarian) greater than 100 µM. For the same compound, the TGI (A498 renal) was greater than 100 µM, the TGI (SNB-75 CNS) was 25.4 µM and the TGI (NCI-H522 lung) was greater than 100 µM. It also gave a TGI (LOX IMVI melanoma) greater than 100 µM, a TGI (HCT-15 colon) greater than 100 µM and a TGI (KM20L2 colon) greater than 100 µM. The TGI (SN12C renal) was greater than 100 µM.
`O=C(NC1C=CCC2C(=O)N(c3ccccc3)C(=O)C12)OCc1ccccc1` (centres undefined) gave a TGI (M14 melanoma) greater than 100 µM, a TGI (DMS 273 small cell lung) greater than 100 µM and a TGI (HL-60(TB) leukemia) greater than 100 µM. The TGI (RPMI-8226 leukemia) was greater than 100 µM, the TGI (HOP-18 NSCLC) was greater than 100 µM and the TGI (SK-MEL-5 melanoma) was greater than 100 µM. For the same compound, the TGI (NCI-H460 lung) was greater than 100 µM, the TGI (KM12 colon) was greater than 100 µM and the TGI (SF-295 CNS) was greater than 100 µM. The TGI (EKVX NSCLC) was greater than 100 µM, the TGI (U251 CNS) was greater than 100 µM and the TGI (OVCAR-3 ovarian) was greater than 100 µM. The TGI (HOP-92 NSCLC) was greater than 100 µM, the TGI (NCI-H23 lung) was greater than 100 µM and the TGI (HCT-116 colon) was greater than 100 µM. It also gave a TGI (CCRF-CEM leukemia) greater than 100 µM, a TGI (HT29 colon) greater than 100 µM and a TGI (OVCAR-4 ovarian) greater than 100 µM. The TGI (A549 NSCLC) was greater than 100 µM, the TGI (RXF 393 renal) was greater than 100 µM and the TGI (SK-MEL-2 melanoma) was greater than 100 µM. For the same compound, the TGI (TK-10 renal) was greater than 100 µM, the TGI (UO-31 renal) was greater than 100 µM and the TGI (XF 498 CNS) was greater than 100 µM. It also gave a TGI (NCI-H226 lung) greater than 100 µM, a TGI (SF-268 CNS) greater than 100 µM and a TGI (UACC-62 melanoma) greater than 100 µM. For the same compound, the TGI (MOLT-4 leukemia) was greater than 100 µM, the TGI (ACHN renal) was greater than 100 µM and the TGI (SNB-19 CNS) was greater than 100 µM. It also gave a TGI (M19-MEL melanoma) greater than 100 µM, a TGI (COLO 205 colon) greater than 100 µM and a TGI (SNB-78 CNS) greater than 100 µM. It also gave a TGI (OVCAR-8 ovarian) greater than 100 µM, a TGI (SK-MEL-28 melanoma) greater than 100 µM and a TGI (SR leukemia) greater than 100 µM. For the same compound, the TGI (786-0 renal) was greater than 100 µM, the TGI (IGROV1 ovarian) was greater than 100 µM and the TGI (LXFL 529 NSCLC) was greater than 100 µM. It also gave a TGI (DLD-1 colon) greater than 100 µM, a TGI (CAKI-1 renal) greater than 100 µM and a TGI (UACC-257 melanoma) greater than 100 µM. The TGI (OVCAR-5 ovarian) was greater than 100 µM, the TGI (HOP-62 NSCLC) was greater than 100 µM and the TGI (K-562 leukemia) was greater than 100 µM. The TGI (SW-620 colon) was greater than 100 µM, the TGI (SF-539 CNS) was greater than 100 µM and the TGI (SK-OV-3 ovarian) was greater than 100 µM. For the same compound, the TGI (SNB-75 CNS) was greater than 100 µM, the TGI (NCI-H522 lung) was greater than 100 µM and the TGI (HCC-2998 colon) was greater than 100 µM. For the same compound, the TGI (LOX IMVI melanoma) was greater than 100 µM, the TGI (KM20L2 colon) was greater than 100 µM and the TGI (SN12C renal) was greater than 100 µM.
Compound `COc1cc2c(cc1OC)C(Cl)C(c1ccc(F)cc1)=C2Cl` (centres undefined) has a TGI (M14 melanoma) of 29.2 µM, a TGI (DMS 273 small cell lung) of 31.9 µM and a TGI (HL-60(TB) leukemia) of 24.2 µM. The TGI (RPMI-8226 leukemia) was 39.2 µM, the TGI (HOP-18 NSCLC) was 30.5 µM and the TGI (MCF7 breast) was 23.9 µM. It also gave a TGI (HS 578T breast) greater than 100 µM, a TGI (SK-MEL-5 melanoma) of 27.4 µM and a TGI (NCI-H460 lung) of 24.8 µM. It also gave a TGI (KM12 colon) of 32.3 µM, a TGI (SF-295 CNS) of 29 µM and a TGI (EKVX NSCLC) of 40.7 µM. The TGI (U251 CNS) was 26.6 µM, the TGI (T-47D breast) was 21.7 µM and the TGI (OVCAR-3 ovarian) was 30.6 µM. For the same compound, the TGI (HOP-92 NSCLC) was 22.6 µM, the TGI (NCI-H23 lung) was 16.5 µM and the TGI (HCT-116 colon) was 25.6 µM. For the same compound, the TGI (MDA-MB-231 breast) was 27 µM, the TGI (CCRF-CEM leukemia) was 29.1 µM and the TGI (NCI/ADR-RES ovarian) was 34.5 µM. The TGI (HT29 colon) was 32.5 µM, the TGI (A549 NSCLC) was 32.8 µM and the TGI (RXF 393 renal) was 30.1 µM. The TGI (SK-MEL-2 melanoma) was 26.5 µM, the TGI (TK-10 renal) was 28.5 µM and the TGI (UO-31 renal) was 33.3 µM. The TGI (DU-145 prostate) was 37.5 µM, the TGI (NCI-H226 lung) was 74 µM and the TGI (SF-268 CNS) was 39.5 µM. For the same compound, the TGI (UACC-62 melanoma) was 29.8 µM, the TGI (MOLT-4 leukemia) was 13.1 µM and the TGI (PC-3 prostate) was 24.9 µM. For the same compound, the TGI (ACHN renal) was 26.1 µM, the TGI (SNB-19 CNS) was 37.5 µM and the TGI (M19-MEL melanoma) was 38.7 µM. For the same compound, the TGI (COLO 205 colon) was 31 µM, the TGI (SNB-78 CNS) was 68.6 µM and the TGI (OVCAR-8 ovarian) was 36.8 µM. For the same compound, the TGI (SK-MEL-28 melanoma) was 33.3 µM, the TGI (SR leukemia) was 14.3 µM and the TGI (786-0 renal) was 24.8 µM. For the same compound, the TGI (IGROV1 ovarian) was 37.2 µM, the TGI (MALME-3M melanoma) was 28.7 µM and the TGI (LXFL 529 NSCLC) was 24 µM. The TGI (DLD-1 colon) was 32.9 µM, the TGI (MDA-MB-435) was 23.6 µM and the TGI (CAKI-1 renal) was 29.1 µM. The TGI (BT-549 breast) was 15.6 µM, the TGI (UACC-257 melanoma) was 28.8 µM and the TGI (DMS 114 small cell lung) was 28.5 µM. The TGI (OVCAR-5 ovarian) was 30.2 µM, the TGI (HOP-62 NSCLC) was 30.1 µM and the TGI (K-562 leukemia) was 44.6 µM. It also gave a TGI (SW-620 colon) of 30.4 µM, a TGI (SF-539 CNS) of 30.4 µM and a TGI (SK-OV-3 ovarian) of 41.9 µM. For the same compound, the TGI (A498 renal) was 29.9 µM, the TGI (SNB-75 CNS) was 29.1 µM and the TGI (NCI-H522 lung) was 21.8 µM. For the same compound, the TGI (HCC-2998 colon) was 28.5 µM, the TGI (LOX IMVI melanoma) was 27.7 µM and the TGI (HCT-15 colon) was 28.4 µM. For the same compound, the TGI (KM20L2 colon) was 28 µM and the TGI (SN12C renal) was 27 µM.
